Measured values reported in US20250270172A1, “Pyrimidine Derivatives As Modulators of the 5-HT2A Serotonin Receptor Useful For The Treatment of Disorders Related Thereto” (Arena Pharmaceuticals, Inc., priority 2020, published 2025).

The compounds below were run against 5-HT2A (Homo sapiens (Human), UniProt P28223) (assay: Radioligand binding assay, [^3H]5-HT competition, 5-HT2A). Details: [^3H]5-HT radioligand, membranes of HEK293 cells expressing recombinant 5-HT2A; Ki from IC50 by Cheng-Prusoff; read-out: 5-HT2A serotonin binding Ki value.
Chain of 5-HT2A (P28223 whole entry): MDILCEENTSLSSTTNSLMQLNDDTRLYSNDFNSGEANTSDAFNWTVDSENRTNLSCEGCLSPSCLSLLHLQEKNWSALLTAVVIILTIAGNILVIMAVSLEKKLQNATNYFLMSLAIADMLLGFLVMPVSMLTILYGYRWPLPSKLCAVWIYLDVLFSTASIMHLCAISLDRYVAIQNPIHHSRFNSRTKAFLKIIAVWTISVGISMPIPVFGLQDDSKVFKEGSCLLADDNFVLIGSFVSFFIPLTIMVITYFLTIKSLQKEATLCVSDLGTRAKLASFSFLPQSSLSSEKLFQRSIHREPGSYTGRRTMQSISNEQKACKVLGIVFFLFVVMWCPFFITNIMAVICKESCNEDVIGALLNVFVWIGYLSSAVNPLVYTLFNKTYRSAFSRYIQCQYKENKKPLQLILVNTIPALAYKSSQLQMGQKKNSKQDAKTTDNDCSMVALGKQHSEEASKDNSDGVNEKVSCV
`Cc1ncnc(C)c1-c1cc(NC(=O)Cc2nccs2)ccc1OCCN1CCC1` [Compound 329, N-(4-(2-(azetidin-1-yl)ethoxy)-3-(4,6-dimethylpyrimidin-5-yl)phenyl)-2-(thiazol-2-yl)acetamide] was tested, and the Ki was 0.0115 µM.
For `Cc1ncnc(C)c1-c1cc(NC(=O)[C@H]2C[C@H]2F)ccc1OC[C@H]1CCCCN1` [Compound 423, (1R,2R)—N-(3-(4,6-dimethylpyrimidin-5-yl)-4-(((R)-piperidin-2-yl)methoxy)phenyl)-2-fluorocyclopropane-1-carboxamide], the Ki was 0.0162 µM.
In the case of `Cc1ccccc1C(=O)Nc1ccc(OCCN2CCCC2)c(-c2c(C)ncnc2C)c1` [Compound 299, N-(3-(4,6-dimethylpyrimidin-5-yl)-4-(2-(pyrrolidin-1-yl)ethoxy)phenyl)-2-methylbenzamide], the Ki is reported as 0.0206 µM.
Work on `Cc1ncoc1C(=O)Nc1ccc(O[C@@H]2CCCNC2)c(-c2c(C)ncnc2C)c1` [Compound 415, (R)—N-(3-(4,6-dimethylpyrimidin-5-yl)-4-(piperidin-3-yloxy)phenyl)-4-methyloxazole-5-carboxamide] yielded a Ki of 0.101 µM.
`Cc1nocc1C(=O)Nc1ccc(OCCN2CCCC2)c(-c2c(C)ncnc2C)c1` [Compound 219] was tested, and the Ki was 0.00651 µM.
Compound `Cc1ncnc(C)c1-c1cc(NC(=O)c2c(F)ccn2C)ccc1OCCN1CCCC1` [Compound 295, N-[3-(4,6-dimethylpyrimidin-5-yl)-4-(2-pyrrolidin-1-ylethoxy)phenyl]-3-fluoro-1-methyl-pyrrole-2-carboxamide] has a Ki of 0.00201 µM.
For `CCN(C)CCOc1ccc(NC(=O)C2CC2)cc1-c1c(C)ncnc1C` [Compound 366, N-[3-(4,6-dimethylpyrimidin-5-yl)-4-[2-[ethyl(methyl)amino]ethoxy]phenyl]cyclopropanecarboxamide], the Ki was 0.0112 µM.
With `CCCN(CCO)CCOc1ccc(NC(=O)C2CC2)cc1-c1c(C)ncnc1C` [Compound 359, N-(3-(4,6-dimethylpyrimidin-5-yl)-4-(2-((2-hydroxyethyl)(propyl)amino)ethoxy)phenyl)cyclopropanecarboxamide] the Ki was 0.102 µM.
Work on `Cc1ncnc(C)c1-c1cc(NC(=O)[C@@H]2C[C@@H]2F)ccc1O[C@@H]1CCCNC1` [Compound 411, (1S,2S)—N-(3-(4,6-dimethylpyrimidin-5-yl)-4-(((R)-piperidin-3-yl)oxy)phenyl)-2-fluorocyclopropane-1-carboxamide] yielded a Ki of 0.0128 µM.
`COCCNCCOc1ccc(NC(=O)c2cccc(OC)c2)cc1-c1c(C)ncnc1C` [Compound 372, N-(3-(4,6-dimethylpyrimidin-5-yl)-4-(2-((2-methoxyethyl)amino)ethoxy)phenyl)-3-methoxybenzamide] gave a Ki of 0.00199 µM.
In the case of `Cc1ncnc(C)c1-c1cc(NC(=O)CCc2ccc(F)cc2)ccc1OCCN1CCCC1` [Compound 248, N-[3-(4,6-dimethylpyrimidin-5-yl)-4-(2-pyrrolidin-1-ylethoxy)phenyl]-3-(4-fluorophenyl)propanamide], the Ki is reported as 0.000845 µM.
With `COC1(C(=O)Nc2ccc(OCCN3CCCC3)c(-c3c(C)ncnc3C)c2)CCC1` [Compound 286, N-[3-(4,6-dimethylpyrimidin-5-yl)-4-(2-pyrrolidin-1-ylethoxy)phenyl]-1-methoxy-cyclobutanecarboxamide] the Ki was 0.0101 µM.
Compound `Cc1ncnc(C)c1-c1cc(NC(=O)C2CC2)ccc1OC[C@@H]1CCN1` [Compound 406, (S)—N-(4-(azetidin-2-ylmethoxy)-3-(4,6-dimethylpyrimidin-5-yl)phenyl)cyclopropanecarboxamide] has a Ki of 0.057 µM.
`Cc1ncnc(C)c1-c1cc(NC(=O)C2CCCO2)ccc1OCCN1CCCC1` (stereo not shown) [Compound 230, N-(3-(4,6-dimethylpyrimidin-5-yl)-4-(2-(pyrrolidin-1-yl)ethoxy)phenyl)tetrahydrofuran-2-carboxamide] showed a Ki of 0.252 µM.
For `Cc1ncnc(C)c1-c1cc(NC(=O)Cn2cccn2)ccc1OCCN1CCCC1` [Compound 236, N-(3-(4,6-dimethylpyrimidin-5-yl)-4-(2-(pyrrolidin-1-yl)ethoxy)phenyl)-2-(1H-pyrazol-1-yl)acetamide], the Ki was 0.0214 µM.
`Cc1ncnc(C)c1-c1cc(NC(=O)c2ncncc2F)ccc1OCCN1CCC1` [Compound 333, N-(4-(2-(azetidin-1-yl)ethoxy)-3-(4,6-dimethylpyrimidin-5-yl)phenyl)-5-fluoropyrimidine-4-carboxamide] gave a Ki of 0.224 µM.
With `Cc1ncnc(C)c1-c1cc(NC(=O)c2ccnn2C)ccc1OC[C@H]1CCCCN1` [Compound 437, N-[3-(4,6-dimethylpyrimidin-5-yl)-4-[[(2R)-2-piperidyl]methoxy]phenyl]-2-methyl-pyrazole-3-carboxamide] the Ki was 0.0107 µM.
Compound `Cc1ncnc(C)c1-c1cc(NC(=O)C2CC2)ccc1O[C@H]1CCNC1` [Compound 404, (S)—N-(3-(4,6-dimethylpyrimidin-5-yl)-4-(pyrrolidin-3-yloxy)phenyl)cyclopropanecarboxamide] has a Ki of 0.0692 µM.
`Cc1ncnc(C)c1-c1cc(NC(=O)C2CC2)ccc1OC[C@H]1CCN1` [Compound 405, N-[4-[[(2R)-azetidin-2-yl]methoxy]-3-(4,6-dimethylpyrimidin-5-yl)phenyl]cyclopropanecarboxamide] was tested, and the Ki was 0.0524 µM.
`Cc1ncnc(C)c1-c1cc(NC(=O)c2ccnn2C)ccc1O[C@@H]1CCCNC1` [Compound 417, (R)—N-(3-(4,6-dimethylpyrimidin-5-yl)-4-(piperidin-3-yloxy)phenyl)-1-methyl-1H-pyrazole-5-carboxamide] showed a Ki of 0.0403 µM.
`Cc1ncnc(C)c1-c1cc(NC(=O)[C@H]2C[C@H]2F)ccc1O[C@@H]1CCCNC1` [Compound 410, (1R,2R)—N-(3-(4,6-dimethylpyrimidin-5-yl)-4-(((R)-piperidin-3-yl)oxy)phenyl)-2-fluorocyclopropane-1-carboxamide] gave a Ki of 0.0374 µM.
Work on `Cc1ncsc1C(=O)Nc1ccc(O[C@@H]2CCCNC2)c(-c2c(C)ncnc2C)c1` [Compound 412, (R)—N-(3-(4,6-dimethylpyrimidin-5-yl)-4-(piperidin-3-yloxy)phenyl)-4-methylthiazole-5-carboxamide] yielded a Ki of 0.02 µM.
`Cc1ncnc(C)c1-c1cc(NC(=O)CN2CCCC2)ccc1OCCN1CCCC1` [Compound 287, N-[3-(4,6-dimethylpyrimidin-5-yl)-4-(2-pyrrolidin-1-ylethoxy)phenyl]-2-pyrrolidin-1-yl-acetamide] showed a Ki of 3.25 µM.
For `COc1cncc(C(=O)Nc2ccc(OCCN3CCCC3)c(-c3c(C)ncnc3C)c2)c1` [Compound 208, N-(3-(4,6-dimethylpyrimidin-5-yl)-4-(2-(pyrrolidin-1-yl)ethoxy)phenyl)-5-methoxynicotinamide], the Ki was 0.0225 µM.
In the case of `Cc1cnoc1C(=O)Nc1ccc(OC[C@H]2CCCCN2)c(-c2c(C)ncnc2C)c1` [Compound 427, (R)—N-(3-(4,6-dimethylpyrimidin-5-yl)-4-(piperidin-2-ylmethoxy)phenyl)-4-methylisoxazole-5-carboxamide], the Ki is reported as 0.0272 µM.
Work on `Cc1ccc(C(=O)Nc2ccc(OCCN3CCCC3)c(-c3c(C)ncnc3C)c2)cc1` [Compound 301, N-(3-(4,6-dimethylpyrimidin-5-yl)-4-(2-(pyrrolidin-1-yl)ethoxy)phenyl)-4-methylbenzamide] yielded a Ki of 0.0034 µM.
`Cc1ncnc(C)c1-c1cc(NC(=O)c2cnoc2)ccc1OC[C@H]1CCCCN1` [Compound 429, (R)—N-(3-(4,6-dimethylpyrimidin-5-yl)-4-(piperidin-2-ylmethoxy)phenyl)isoxazole-4-carboxamide] was tested, and the Ki was 0.131 µM.
`Cc1ncnc(C)c1-c1cc(NC(=O)CN2CCn3cnnc3C2)ccc1OCCN1CCCC1` [Compound 240, 2-(5,6-dihydro-[1,2,4]triazolo[4,3-a]pyrazin-7 (8H)-yl)-N-(3-(4,6-dimethylpyrimidin-5-yl)-4-(2-(pyrrolidin-1-yl)ethoxy)phenyl)acetamide] gave a Ki of 60.9 µM.
For `Cc1ncnc(C)c1-c1cc(NC(=O)c2cnoc2C)ccc1OCCN1CCCC1` [Compound 220, N-(3-(4,6-dimethylpyrimidin-5-yl)-4-(2-(pyrrolidin-1-yl)ethoxy)phenyl)-5-methylisoxazole-4-carboxamide], the Ki was 0.022 µM.
Compound `Cc1ncsc1C(=O)Nc1ccc(OC[C@H]2CCCCN2)c(-c2c(C)ncnc2C)c1` [Compound 425, (R)—N-(3-(4,6-dimethylpyrimidin-5-yl)-4-(piperidin-2-ylmethoxy)phenyl)-4-methylthiazole-5-carboxamide] has a Ki of 0.0438 µM.
`Cc1ncnc(C)c1-c1cc(NC(=O)c2cccc(F)c2)ccc1OCCN1CCCC1` [Compound 297, N-(3-(4,6-dimethylpyrimidin-5-yl)-4-(2-(pyrrolidin-1-yl)ethoxy)phenyl)-3-fluorobenzamide] was tested, and the Ki was 0.00271 µM.
Work on `Cc1cnoc1C(=O)Nc1ccc(OCCN2CCCC2)c(-c2c(C)ncnc2C)c1` [Compound 216, N-(3-(4,6-dimethylpyrimidin-5-yl)-4-(2-(pyrrolidin-1-yl)ethoxy)phenyl)-4-methylisoxazole-5-carboxamide] yielded a Ki of 0.0166 µM.
`Cc1ncnc(C)c1-c1cc(NC(=O)C2CC2)ccc1OCCN1CCOCC1` [Compound 390, N-[3-(4,6-dimethylpyrimidin-5-yl)-4-(2-morpholinoethoxy)phenyl]cyclopropanecarboxamide] was tested, and the Ki was 0.00525 µM.
In the case of `Cc1ncnc(C)c1-c1cc(NC(=O)C2(c3ccccc3)CC2)ccc1OCCN1CCCC1` [Compound 253, N-(3-(4,6-dimethylpyrimidin-5-yl)-4-(2-(pyrrolidin-1-yl)ethoxy)phenyl)-1-phenylcyclopropane-1-carboxamide], the Ki is reported as 0.00634 µM.
For `Cc1ncncc1-c1cc(NC(=O)C2CC2)ccc1OCCN1CCOCC1` [Compound 391, N-(3-(4-methylpyrimidin-5-yl)-4-(2-morpholinoethoxy)phenyl)cyclopropanecarboxamide], the Ki was 0.0253 µM.
`Cc1ncnc(C)c1-c1cc(NC(=O)c2cccc(F)c2)ccc1OC[C@H]1CCCCN1` [Compound 449, (R)—N-(3-(4,6-dimethylpyrimidin-5-yl)-4-(piperidin-2-ylmethoxy)phenyl)-3-fluorobenzamide] was tested, and the Ki was 0.00649 µM.
`Cc1cccc(C(=O)Nc2ccc(OCCN3CCC3)c(-c3c(C)ncnc3C)c2)c1` [Compound 322, N-(4-(2-(azetidin-1-yl)ethoxy)-3-(4,6-dimethylpyrimidin-5-yl)phenyl)-3-methylbenzamide] was tested, and the Ki was 0.00339 µM.
